The values below come from patent US4402970A, “1,7-Dihydro-pyrrolo[3,4-e][1,4]diazepin-2(1H)-one derivatives” (Gruppo Lepetit S.p.A., priority 1981, dated 1983).

The subject of data set [1] is benzodiazepine receptors. In words: benzodiazepine receptors test in vivo (displacement of 3H-Diazepam from rat brain receptors). On the procedure:
(§1) The anti-anxiety activity of the compounds of the present invention was first shown by submitting the compounds to the "benzodiazepine receptors" test both in vitro and in vivo.
(§2) The in vitro experiments were carried out by following the method described by H. Moler and T. Okada in Life Sciences Vol. 20, 2101-2110 (1977) while those in vivo were carried out according to the procedures illustrated by S. Lippa et al. in Pharmacol. Biochem. & Behaviour, Vol. 9, pp. 853-856 (1978).

Data set [2] concerns the target benzodiazepine receptors. In words: benzodiazepine receptors test in vitro (displacement of 3H-Diazepam from rat brain receptors). The class given is binding. The procedure:
as §1, §2
In general terms: Displacement assays read how much labelled ligand stays bound in the presence of the test substance.

The next data set deals with rats. Put plainly: potentiation of hexobarbital-induced sleeping time in rats (inducing activity). To be noted: for potentiation of hexobarbital-induced "sleeping time": same conditions, higher doses than 1 mg/kg p.o. The format is in vivo. On the procedure:
(§3) This is considered as an indication of the absence of inducing activity. These favorable pharmacological properties of the compounds of the present invention are accompanied by a low toxicity, lower than that of the prior-art compounds. As an example, while the acute oral toxicity of the prior-art 3,7-dihydro-6,7-dimethyl-5-phenylpyrrolo[3,4-e][1,4]diazepin-2(1H)-one in mice is about 500 mg/kg, that of the compound of example 5 of the present invention is comprised between 600 and 700 mg/kg and that of the compound of example 11 is higher than 20,000 mg/kg.

Data set [3] in a line: acute oral toxicity in mice. To be noted: mouse, in vivo. The procedure: as §3
The subject of data set [4] is mice (pentylenetetrazole-induced death). Put plainly: antipentylenetetrazole bioassay in mice (anticonvulsant activity). The class given is in vivo. To be noted: oral; for ED50: Mus musculus, 2 h. The procedure:
To evaluate the anticonvulsant activity the compounds of the present invention have been submitted to the antipentylenetetrazole bioassay in mice. The experiments have been carried out by following essentially the methodology described by Berger in J. Pharm. Exptl. Ther. 104, 468, (1952). More particularly, a fatal dose of pentylenetetrazole (140 mg/kg s.c.) was administered to groups of ten mice each, treated, 30 minutes before the administration of the convulsant agent, with a selected dose of the potential anticonvulsant compound. […] Since the animals of the control group died within 30 minutes, the effectiveness of the compounds tested, at each dose tested, was expressed as the number of animals of the group which were still alive two hours after the administration of pentylenetetrazole, out of the total number of animals of the group (10).
By testing each compound at different doses, the corresponding ED50, i.e. the dose at which 50% of the treated animals are protected, was calculated.
The same test was carried out also with 3,7-dihydro-6,7-dimethyl-5-phenyl-pyrrol[3,4-e][1,4]diazepin-2 (1H)-one (IX) [drawing 13]

For a further data set, the system named is monkeys. Put plainly: taming effect test on naturally vicious and aggressive monkeys. The format is in vivo. The conditions noted are these: oral dose of 1 mg/kg. From the text:
Another behavioural test which confirmed the anti-anxiety properties of the compounds of the present invention was the so-called "taming effect" test carried out on naturally vicious and aggressive monkeys.
The "taming effect" on monkeys is one of the most meaningful and reliable parameters with which the anti-anxiety properties of a compound can be investigated. […] A true "taming effect", as an indication of the anti-anxiety properties of a compound not ascribable to CNS-depression, is reached when the animals become docile and friendly so as to accept food from the observer's hand.

The mark [5] stands for this setting: 30 minutes before pentylenetetrazole 140 mg/kg s.c., survival at two hours, read-out: ED50 (dose at which 50% of the treated animals are protected).

The structures appear in SMILES notation. Where two headings read alike, the source gives them in different places.

One may read the Ki as a measure of affinity in units of concentration, obtained from inhibition or displacement. A low value points to tighter binding. A word on the LD50: it is the dose expected to kill half of the subjects tested. A higher LD50 goes with lower toxicity. As to `Cc1c2c(cn1C)NC(=O)C(O)N=C2c1ccccc1` (stereo not shown) [Example 5, 1,7-Dihydro-3-hydroxy-6,7-dimethyl-5-phenyl-pyrrolo[3,4-e][1,4]diazepin-2(1H)-one], the “"in vivo" % inhibition at 1 mg/kg/os” value in the data set on benzodiazepine receptors [1] was -45%. Further, on benzodiazepine receptors [2], the Ki came to 45.9 nM. Further, in the data set on rats, the “potentiation of hexobarbital-induced "sleeping time"” value was “did not show this potentiating effect even at higher doses”. The LD50 in data set [3] was 600 to 700 mg/kg.

As a reminder, the ED50 is the dose that gives a 50% effect, or the effect in half of the subjects. Consider `CC(=O)OC1N=C(c2ccccc2Cl)c2c(cn(C)c2C)NC1=O` (stereo not shown) [Example 9, 5-(2-chlorophenyl)-3-acetoxy-1,7-dihydro-6,7-dimethylpyrrolo[3,4-e][1,4]diazepin-2-(1H)-one], for which the median effective dose (ED50) in data set [4] (setting [5]) came to 7.5 mg/kg.

For the molecule `Cc1c2c(cn1C)NC(=O)C(O)N=C2c1ccccc1Cl` (stereo not shown) [Example 10], the “treated animals displaying a true "taming effect"” value in the data set on monkeys is given as “at least 50%”. In data set [4] (setting [5]), the ED50 came out at 7.5 mg/kg.

In the case of `Cc1c2c(cn1C)N(C)C(=O)C(O)N=C2c1ccccc1Cl` (stereo not shown) [Example 11, 5-(2-Chlorophenyl)-1,7-dihydro-3-hydroxy-1,6,7-trimethylpyrrolo[3,4-e][1,4]diazepin-2(1H)-one], in the data set on monkeys, the “treated animals displaying a true "taming effect"” value is reported as “at least 50%”. Further, the “"in vivo" % inhibition at 1 mg/kg/os” value with benzodiazepine receptors [1] is listed as -54%. Further, the affinity on benzodiazepine receptors [2], expressed as Ki, was 2.82 nM. The “potentiation of hexobarbital-induced "sleeping time"” value with rats is listed as “did not show this potentiating effect even at higher doses”. Further, the ED50 in data set [4] (setting [5]) was determined as 5 mg/kg. Besides, in data set [3], the LD50 was above 20000 mg/kg.

Consider `Cc1c2c(cn1C)NC(=O)CN=C2c1ccccc1` [IX, 3,7-dihydro-6,7-dimethyl-5-phenyl-pyrrol[3,4-e][1,4]diazepin-2 (1H)-one, reference compound], for which the “"in vivo" % inhibition at 1 mg/kg/os” value with benzodiazepine receptors [1] was -33%. The Ki on benzodiazepine receptors [2] came to 97 nM. In addition, the “dose from which hexobarbital-induced "sleeping time" is potentiated” value in the data set on rats (p.o.) is on record as 1 mg/kg p.o. Besides, the ED50 in data set [4] (prior-art compound, calculated in the same way, read-out: ED50) was 15 mg/kg. For the same molecule, in data set [4] (comparison of ED50), the “anticonvulsant activity relative to the compounds of the present invention” value is given as “at least twice less active than the compounds of the present invention”. The same molecule had an LD50 in data set [3] of around 500 mg/kg.
